PMC8998611, “Identification of Novel GSK-3β Hits Using Competitive Biophysical Assays” (International Journal of Molecular Sciences, 2022)

Tests used:
[1] = molecular target: T1, GSK-3β (Homo sapiens, UniProt P49841); test: LANCE Ultra TR-FRET GSK-3β kinase inhibition assay (ULight-GS phosphorylation); type: biochemical; conditions: 1 µM ATP, 50 nM ULight-GS; for IC50: dose-response 30 nM to 200 μM
Experimental: To assess if the identified GSK-3β binders were also able to affect kinase activity, the inhibitory activity of the four identified hit compounds was tested at four concentrations (1-5-50-100 μM) using the LANCE® Ultra (Perkin Elmer, Waltham, MA, USA) time-resolved fluorescence resonance energy transfer (TR-FRET) assay. The assay measures the ability of GSK-3β to phosphorylate a specific substrate, human Muscle Glycogen Synthase (ULight-GS ([…]/pSer657)), in the presence and absence of the identified ligands. […] Specifically, IC50 values were (14.81 ± 0.55) μM and (15.25 ± 1.34) μ[…] and G12, respectively (Figure 5). The GSK-3β kinase assay was run in 384 well microplates (OptiPlate^TM-384, White, Perkin Elmer) with a total reaction volume of 20 μL. The inhibitory potency against human recombinant GSK-3β was evaluated using the LANCE® Ultra (Perkin Elmer) time-resolved fluorescence resonance energy transfer (TR-FRET) by measuring the phosphorylation of the specific substrate, human Muscle Glycogen Synthase (ULight-GS ([…]/pSer657)), according to the manufacturer's instructions. […] The reaction was initiated by adding 50 nM of the substrate ULight-[…] and 1 μM ATP. The mixture was incubated for 1 h at 23 °C. Afterward, the reaction was stopped by adding 8 mM EDTA. After 5 min, the anti-phospho-GS antibody labeled with europium chelate was added. 1 h later, the kinase reaction was monitored by irradiation at 320 nm, and the fluorescence was measured at 615 and 665 nm, using EnVision 2014 Multilabel Reader (PerkinElmer). The calculated signal ratio at 665/615 nm was proportional to the extent of ULight-GS phosphorylation. The compounds were screened at four concentrations (1-5-50-100 μM). For selected compounds, dose-response curves, ranging from 30 nM up to 200 μM, were performed. Dose-response curves were run in three independent experiments, each performed in three technical replicates. IC50 values (concentrations causing half-maximal response or enzyme inhibition) were determined by non-linear regression analysis of the Log [concentration]/response curves generated with mean replicate values using a four parameter Hill equation curve fitting with GraphPad Prism 8 (GraphPad Software Inc., San Diego, CA, USA).

[2] = molecular target: T1, GSK-3β; test: MicroScale Thermophoresis (MST) binding to fluorescently labeled GSK-3β; set-up: made in house; host or cells: Sf9 cells; conditions: preincubation with 3 mM AMP-PNP; data not shown
Experimental: MicroScale Thermophoresis (MST) experiments were conducted in triplicate on a Monolith NT.115 Pico system (NanoTemper Technologies, Munich, Germany).
The MST technique was used both for hit binding and for affinity (kd) determination.
GSK-3β was labeled with the His-tag RED-tris-NTA label 2nd generation (Nanotemper Technologies) following Nanotemper technology protocol. The 100 nM stock labeled protein solution was used at 20 nM concentration to roughly start from 7000 fluorescence counts in each screening experiment.
GSK-3β was labelled also using RED-NHS ammine dye (Nanotemper Technologies) following the manufacturer’s protocol. The obtained ammine-labeled protein was used at 20 nM concentration to roughly start the experiments from 6000 fluorescence counts.
Binding tests were performed on eight capillaries with a constant concentration of the labeled protein (20 nM), to detect the effect induced by the compounds on the fluorescence signal (in the presence or absence of 3 mM AMP-PNP). Protein in assay buffer in the presence of 5% DMSO was the negative control.
Assay buffer: Phosphate buffer 0.1 M pH 7.2, 5 mM MgCl2, 0.001% Tween80, 0.1% PEG8000. Experiments were performed in triplicates. Data elaboration and plots were performed using MO.Control Nanotemper software.

T1 sequence (P49841 whole entry): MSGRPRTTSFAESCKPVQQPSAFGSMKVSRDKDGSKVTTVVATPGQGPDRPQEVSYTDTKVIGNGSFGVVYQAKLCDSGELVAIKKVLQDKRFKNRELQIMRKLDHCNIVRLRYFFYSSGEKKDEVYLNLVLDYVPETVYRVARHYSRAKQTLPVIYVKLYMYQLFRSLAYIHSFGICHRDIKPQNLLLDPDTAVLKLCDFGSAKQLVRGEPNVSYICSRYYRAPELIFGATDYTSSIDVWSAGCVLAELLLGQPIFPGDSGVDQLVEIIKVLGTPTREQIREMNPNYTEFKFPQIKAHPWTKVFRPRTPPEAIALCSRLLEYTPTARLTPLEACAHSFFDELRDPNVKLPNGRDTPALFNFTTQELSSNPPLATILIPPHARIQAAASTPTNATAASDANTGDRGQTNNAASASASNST

| IC50 [1] | MST binding check, displacement assay [2] | inhibition at 1 µM ([1]; 1 μM compound, mean ± SD) | inhibition at 5 µM ([1]; 5 μM compound, mean ± SD) | inhibition at 50 µM ([1]; 50 μM compound, mean ± SD) | inhibition at 100 µM ([1]; 100 μM compound, mean ± SD) | Structure (SMILES) |
| --- | --- | --- | --- | --- | --- | --- |
| 38.1 µM | – | – | – | – | – | O=C(Nc1ccccn1)C1CCN(C(=O)COc2ccccc2F)C1 (stereo not shown) [ARN1484] |
| 27.2 µM | – | – | – | – | – | CN(C)S(=O)(=O)N1CC(c2nc(N)ncc2-c2ccc(F)cc2)C1 [ARN9133] |
| – | maintained their ability to bind GSK-3β | 2.5 ± 0.9% | 4.9 ± 1.5% | 27.1 ± 4.9% | 46.6 ± 6% | O=C(NCCn1ncc(-c2ccncc2)c1C1CC1)c1ccccc1F [B3] |
